Reference: US5723494A, “Derivatives of glutamic and aspartic acids, a method of preparing them, and their use as drugs for enhancing memory and learning” (priority 1993, dated 1998)

Key:
[1] = Antiamnesic activity in the mouse (step-down passive avoidance, amnesia induced by ECS); type: in vivo, mouse (CD1 male); conditions: mouse; for change in vivo at 3 mg/kg: 3 mg/kg OS; for change in vivo at 30 mg/kg: 30 mg/kg OS; for change in vivo at 10 mg/kg: 10 mg/kg OS; for Antiamnesic activity (in words) / ED50: OS; for change in vivo at 0.1 mg/kg: 0.1 mg/kg OS; for change in vivo at 1 mg/kg: 1 mg/kg OS; for ED50: 60 min before training, read-out: ID50 (antiamnesic activity, dose inhibiting the amnesic effect of the ECS by 50%)
From the text: 1) Antiamnesic activity in the mouse (step-down passive avoidance)
An electroconvulsive shock (ECS) produces retrograde amnesia in the test animal if applied immediately after the training received, for example, a harmful stimulus of a suitable intensity.
The object of the experiment was to study the effects of the compounds of the invention in antagonizing the amnesic effect of an ECS on the short-term memory consolidation process.
CD1 male mice which weighed about 30-35 g, and had not fasted were used. The equipment used was a rectangular plexiglass cage (21×21×40cm) with an electrifiable grid floor and a wooden cube (4×4×4 cm) fixed in the centre of the cage. The animals were treated orally with the product under test 60 minutes before the training.
The mouse was placed delicately on the wooden cube and the time it took to descend to the grid floor (SDL=step-down latency) was measured. When all four of the animal's paws were resting on the floor the continuous 0.2 mA shock started and the time taken by The mouse to remount the wooden cube (EL=escape latency) was measured.
The animals with an SDL of between 3 and 30 sec and with an EL of between 3 and 60 sec were used for retesting.
Immediately afterwards, a transcorneal ECS was applied with the use of the following parameters: amperage 15 mA, frequency 50 Hz, duration of the train of pulses 0.4 sec. duration of each individual pulse 1 msec., interval between pulses 20 msec. As well as the groups treated with ECS, a control group without ECS and a control group with ECS were used.
The retest was carried out after 24 h.
The results are expressed as the percentage variation of the SDL of the treated groups in comparison with the control group by means of this formula: [formula]

[2] = Antidepressant activity in the behavioural despair test in the mouse; type: in vivo, mouse (male CD1); conditions: for inhibition in vivo at 3 mg/kg / inhibition in vivo at 10 mg/kg / inhibition in vivo at 30 mg/kg / inhibition in vivo at 1 mg/kg: 5 min, 5 minutes, read-out: Decrease in immobility (as %) vs the controls; for inhibition in vivo at 3 mg/kg: 3 mg/kg IP; for inhibition in vivo at 10 mg/kg: 10 mg/kg IP; for inhibition in vivo at 30 mg/kg: 30 mg/kg IP; for ED50 (dose antagonising immobility time by 50%) / ED50 / Antidepressant activity (in words): IP; for inhibition in vivo at 1 mg/kg: 1 mg/kg IP; for ED50: read-out: ED50 (dose antagonising immobility time by 50%)
From the text: 5) Antidepressant activity in the "behavioural despair test" Another interesting aspect of the pharmacological activity of these products is the potent antidepressant activity which some of them display in an experimental model in the mouse, in which a state of depression is induced experimentally by the method of Porsolt et al. (Arch. Int. Pharmacodyn. 229, p. 327-336 (1977)). Male CDl mice which weighed about 20-25 g and had not fasted were used. The test consisted of inducing a state of depression in the animal which was subjected to forced swimming in a glass cylinder from which it could not escape. After a short period of vigorous activity the mouse adopted a characteristic posture of immobility which was easily identifiable; this immobility is reduced by antidepressant drugs. 1 l glass beakers, filled to 700 ml with water at a temperature of 25° C. were used for the test. The mice, 8 per group, were treated intraperitoneally with the drug under test, 30 minutes before the test. At time 0, each animal was immersed in a beaker and, after one minute during which all moved about swimming vigorously in order to escape, regardless of treatment, the observer, who was unaware of the treatment, assigned the following points: 0=animal immobile 1=minimum movement to remain afloat 2=vigorous swimming The greater the antidepressant activity of the drug, the more the animals will move about in order to try to escape from the water. The points were assigned every 15 sec for a total period of 5 min with a total of 20 observations. The antidepressant activity was determined with the use of various doses of the compound by the regression method as the ED50, that is, the dose in mg/kg of the compound which could antagonise the animal's immobility time by 50%.

[3] = target: excitor amino-acid receptors of cortical membranes ("forebrain") of rats; test: Inhibition of the specific binding of [3H]-glutamate to rat forebrain membranes; conditions: for IC50: rat forebrain membranes, 20 min, 37° C., pH 7.1; for Activity in inhibiting the binding of glutamate (in words): rat cortical membranes
From the text: 6) Studies on binding to rat "forebrain" membranes
L-glutamate recognizes all three receptor subtypes indicated above, al though not selectively. It is therefore desirable to evaluate the capacity of each of the compounds of the invention to interact with the excitor amino-acid receptors of the CNS.
"Forebrain", that is, the cerebral cortex and the hippocampus, were selected as the receptor tissue and ^3 H-L-glutamate as the ligand for marking this heterogenous receptor population.
Rat cerebral tissue (forebrain without striated tissue) was therefore homogeneised cold in tris buffer at pH 7.4. After washing and centrifuging, the final pellet was resuspended in 50 volumes of tris HCl binding buffer at 7.1. 0.5 ml of receptor membrane thus obtained were then incubated, together with the radioactive tracer and the compounds under test, for 20 min at 37° C. The reaction was terminated by separating the bound radio-ligand from the free radio-ligand by filteration on glass-fibre filters which, after washing, were counted in a liquid scintillator (a β-counter) thus determining the radioactivity associated with the pellet. The specific binding was determined as the difference between the binding in the absence and in the presence of cold 3.6 mM L-glutamate.

[4] = Memory-enhancement activity in the passive avoidance test in the rat; type: in vivo, rat (male Wistar); conditions: rat; for change in vivo at 0.1 mg/kg / change in vivo at 1 mg/kg / change in vivo at 10 mg/kg: 96 h, 6 treatments, read-out: % variation vs controls (FS) in step through latency; for change in vivo at 0.1 mg/kg: 0.1 mg/kg IP; for change in vivo at 0.1 mg/kg / change in vivo at 1 mg/kg / change in vivo at 10 mg/kg / Activity in increasing the avoidance time (in words): retest on the 4th day; for change in vivo at 1 mg/kg: 1 mg/kg IP; for change in vivo at 10 mg/kg: 10 mg/kg IP; for ED30 / Activity in increasing the avoidance time (in words): IP; for ED30: read-out: ED30 (dose increasing the latency time (STL) by 30%)
Experimental: 2) Memory-enhancement activity in the "passive avoidance" test in the rat
A "passive avoidance" model was used, which required a single "step-through" situation and a retest of the "retention memory" 72 h after the training.
Male Wistar rats which weighed about 200 g and had not fasted, were used. The test consisted of evaluating the degree of memory of an animal after it had been trained as follows.
The equipment used was a shuttle box modified thus: one compartment was lined with black card including the cover, and a 60 W lamp was disposed above the other, spaced from the grid floor by about 40 cm. The two compartments were divided by an automatic guillotine-like door. Each animal was placed in the compartment in the light with the guillotine-likedoor open. From this moment, the time taken by the rat to go into the compartment lined with black card (the dark compartment) (the step-throughlatency=STL) was measured. The animals which took more than 30 sec to go into the dark were discarded. Once they had gone into the dark, the door was lowered automatically and a=0.1 mA shock lasting 5 sec (a foot shock=FS) started. After 10 sec, the animal was removed from the shuttle box.
Upon completion, the animals were selected randomly in homogeneous groups and treated with the products.
The retest to determine memory was made after 72 hours. The products were administered chronically in the preselected manner twice per day and the last treatment 30 min before the retest (6 treatments altogether).
The memory-retention test (the retest) consisted of placing each animal, treated 30 min beforehand with a physiological solution or with the product, in the compartment which was not lined with black card for 30 sec.
The results are expressed as the percentage variation of the STL (in seconds) of the groups treated in comparison with the control group by means of this formula: [formula]

[5] = po, retest 24 h after training, read-out: Reversal of the amnesia (% vs controls), as the increase in the Step Down Latency

| Structure (SMILES) | IC50 [3] [µM] | change in vivo at 3 mg/kg [1, 5] [%] | change in vivo at 30 mg/kg [1, 5] [%] | inhibition in vivo at 3 mg/kg [2] [%] | inhibition in vivo at 10 mg/kg [2] [%] | inhibition in vivo at 30 mg/kg [2] [%] | ED50 (dose antagonising immobility time by 50%) [2] | change in vivo at 10 mg/kg [1, 5] [%] | inhibition in vivo at 1 mg/kg [2] [%] | ED50 [2] [mg/kg] | Antiamnesic activity (in words) [1] | ED50 ([1]; po) [mg/kg] | change in vivo at 0.1 mg/kg [4] [%] | change in vivo at 1 mg/kg [4] [%] | change in vivo at 10 mg/kg [4] [%] | Activity in increasing the avoidance time (in words) [4] | other results |
| --- | --- | --- | --- | --- | --- | --- | --- | --- | --- | --- | --- | --- | --- | --- | --- | --- | --- |
| N[C@@H](CCC(=O)O)C(=O)NC12CC3CC(CC(C3)C1)C2 [Compound 14] | 73.3 | – | – | 0 | 0 | 21 | Inactive | – | – | – | – | – | – | – | – | – | – |
| N[C@@H](CCC(=O)O)C(=O)NC1C2CC3CC(C2)CC1C3 (stereo partly drawn) [Compound 15] | 132 | – | – | 0 | 33 | 75 | – | – | – | 15.4 | – | – | – | – | – | – | – |
| N[C@H](CCC(=O)O)C(=O)NCCC12CC3CC(CC(C3)C1)C2 [Compound 17] | 312 | – | – | 7 | 12 | 0 | Inactive | 10 | – | – | completely inactive | – | 0 | 0 | 0 | inactive | change in vivo at 0.1 mg/kg [1, 5]: 0%; change in vivo at 1 mg/kg [1, 5]: 14%; Antidepressant activity (in words) [2]: inactive |
| N[C@@H](CCC(=O)O)C(=O)N1CCC2(CCCC2)CC1 [Compound 30] | 368 | – | – | 0 | 25 | 20 | Not Calculable | – | – | – | – | – | – | – | – | – | – |
| CC1(C)CCC(NC(=O)CC[C@H](N)C(=O)O)CC1 [Compound 48, 1-(4,4-dimethylcyclohexyl)-L-glutamine] | 70.7 | – | – | 9 | 18 | 38 | Not Calculable | – | 0 | – | – | – | 6 | 0 | 18 | – | – |

Stronger by IC50 [3], values ahead:

| IC50 [3] [µM] | Structure (SMILES) | change in vivo at 3 mg/kg [1, 5] [%] | change in vivo at 30 mg/kg [1, 5] [%] | inhibition in vivo at 3 mg/kg [2] [%] | inhibition in vivo at 10 mg/kg [2] [%] | inhibition in vivo at 30 mg/kg [2] [%] | ED50 (dose antagonising immobility time by 50%) [2] | change in vivo at 10 mg/kg [1, 5] [%] | inhibition in vivo at 1 mg/kg [2] [%] | ED50 [2] [mg/kg] | Antiamnesic activity (in words) [1] | ED50 ([1]; po) [mg/kg] | change in vivo at 0.1 mg/kg [4] [%] | change in vivo at 1 mg/kg [4] [%] | change in vivo at 10 mg/kg [4] [%] | Activity in increasing the avoidance time (in words) [4] | other results |
| --- | --- | --- | --- | --- | --- | --- | --- | --- | --- | --- | --- | --- | --- | --- | --- | --- | --- |
| 20.1 | CC(C)(C)CCNC(=O)[C@@H](N)CCC(=O)O [Compound 5] | 10 | 22 | 12 | 32 | 23 | Not Calculable | – | – | – | – | – | – | – | – | – | change in vivo at 0.3 mg/kg ([1]; po, 0.3 mg/kg OS, retest 24 h after training, read-out: Reversal of the amnesia (% vs controls), as the increase in the Step Down Latency): 7% |
| 35.7 | N[C@@H](CCC(=O)O)C(=O)NC1CCC2CCCCC2C1 (stereo partly drawn) [Compound 11] | 3 | 10 | 32 | 64 | 19 | – | 0 | 5 | 13.5 | – | – | – | – | – | – | – |
| 15 | N[C@@H](CCC(=O)O)C(=O)NCCC12CC3CC(CC(C3)C1)C2 [Compound 16] | 46 | 73 | 46 | 77 | 98 | – | 50 | 15 | 3.9 | particularly remarkable | 4.6 | 11 | 21 | 57 | considerable activity in increasing the avoidance time | change in vivo at 0.1 mg/kg [1, 5]: 0%; change in vivo at 1 mg/kg [1, 5]: 47%; ED30 [4]: 1 mg/kg; Antidepressant activity (in words) [2]: antidepressant effect of the same order of magnitude as the comparison drug used, amitriptyline; Activity in inhibiting the binding of glutamate (in words) [3]: considerable activity in inhibiting the binding of the glutamate |
| 14.4 | N[C@@H](CCC(=O)O)C(=O)NC1CCCCCC1 [Compound 20] | 15 | 61 | 0 | 11 | 52 | – | 41 | – | 36.1 | – | 17.3 | 7 | 20 | 36 | considerable activity in increasing the avoidance time | ED30 [4]: 4.2 mg/kg; Activity in inhibiting the binding of glutamate (in words) [3]: considerable activity in inhibiting the binding of the glutamate |
| 61.2 | N[C@@H](CCC(=O)NCCC12CC3CC(CC(C3)C1)C2)C(=O)O [Compound 45] | 3 | 55 | – | – | – | – | 20 | – | – | less active | 28.9 | 0 | 0 | 12 | – | – |
